# Experimental data published in publication PMC5584760, “Rational design of drug-like compounds targeting Mycobacterium marinum MelF protein” (PLoS ONE, 2017).
# Several values for one entry are separate records, joined by “and”; a condition that tells them apart may be missing. Equal entries are not always repeated. Where two headings read alike, the source gives them in different places.
# How the values were obtained:
# [1] = molecular target: purified MelF (Mycobacterium marinum, UniProt Q5SDQ6); test: Ki determination by Dixon plots; assay type: biochemical; details: for Ki: Dixon plots, substrate 50, 100 and 150 μM; for type of inhibition (Dixon's plot): intersection of Dixon's plots
# Sequence of purified MelF (Q5SDQ6 entry or part of it): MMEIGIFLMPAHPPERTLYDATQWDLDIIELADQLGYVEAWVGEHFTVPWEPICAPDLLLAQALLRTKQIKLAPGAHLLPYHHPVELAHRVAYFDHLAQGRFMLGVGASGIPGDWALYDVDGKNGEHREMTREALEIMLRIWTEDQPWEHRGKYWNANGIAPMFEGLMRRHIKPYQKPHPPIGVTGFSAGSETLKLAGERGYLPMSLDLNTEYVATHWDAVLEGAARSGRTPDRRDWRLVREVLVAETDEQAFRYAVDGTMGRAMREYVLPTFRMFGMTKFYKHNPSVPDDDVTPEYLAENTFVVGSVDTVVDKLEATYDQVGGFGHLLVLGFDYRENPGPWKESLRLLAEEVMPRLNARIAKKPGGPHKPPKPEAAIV
# Protocol: The enzyme activity was assayed by monitoring a decrease in absorption of NADH (nicotinamide adenine dinucleotide) at 340 nm (ε = 6.22 X 10^3 M^-1cm^-1) in 50 mM Tris-Cl, pH 7.4 at 25°C. The steady state kinetic measurements were performed in a 1-cm path length cuvette in a final volume of 1mL according to the method of Kendrew et al. with slight modifications. 300μM of NADH and 80μM of FAD (flavin adenine dinucleotide) were added and the assay was initiated with the addition of 100 μg (6.09× 10^−10 mole) of enzyme present in WCL/purified MelF. The reaction was followed at 25°C for 5 min. The FAD was kept in the dark to prevent photo-reduction. The specific activity of the enzyme was calculated as Units/mg = ΔA340/min/6.22×mg enzyme/ mL reaction mixture Where ΔA340 represents a change in absorbance of NADH at 340 nm.
# Ki values were calculated using Dixon plots, where inverse of Vmax values were plotted against the inhibitor concentration using different substrate concentrations.
# [2] = test system: HeLa cells; test: MTT cytotoxicity assay; assay type: cell-based, Human; details: 20 h
# Protocol: The MTT (3-(4, 5-dimethyl thiazol-2yl)-2, 5-diphenyl tetrazolium bromide) assay was employed to assess the cytotoxicity of the inhibitors. HeLa cells (Human cervical epithelial cells) were plated at a concentration of 1×10^5/well in 100 μL of minimal essential medium (MEM) supplemented with 10% heat-inactivated fetal bovine serum (FBS) in 96-well plates. After overnight incubation at 37°C in 5% CO2 incubator, media was removed and the inhibitors were added in 100 μL of MEM + 10% heat-inactivated FBS at 1X and 5 X MIC concentrations. After incubation for 20 h, the cells were washed thrice with warm MEM (without FBS) and 200 μL of MTT (5mg/mL) was added. The plates were further incubated for 4 h, followed by the addition of 50 μL of DMSO (solubilizing reagent) per well, mixed thoroughly by a micropipette and left for 45 s. Presence of viable cells was visualized by the development of purple color due to formation of formazan crystals. The OD values were read at 595 nm using DMSO as a blank. A standard graph was plotted between the concentration of inhibitors and the relative cell viability.
# Cell viability (%) = Test OD /Control ODX 100
# [3] = test system: M. marinum; test: MBC by CFU assay; assay type: cell-based, M. marinum strain M; details: for MBC, M. marinum / MBC: CFU assay, 48 h, median (range) of three independent experiments; for MBC/MIC, M. marinum: ratio, bactericidal when ≤ 4; for MBC: Mycobacterium marinum
# [4] = test system: M. tuberculosis; test: MIC by resazurin microtiter plate assay (REMA); assay type: cell-based, M. tuberculosis H37Rv; details: 96 h, ~5 X 10^6/well, median (range) of three independent experiments; for MIC: Mycobacterium tuberculosis
# [5] = test system: M. marinum; test: MIC by resazurin microtiter plate assay (REMA); assay type: cell-based, M. marinum strain M; details: 48 h, ~5 X 10^6/well, median (range) of three independent experiments; for MIC: Mycobacterium marinum
# [6] = test system: M. tuberculosis; test: MBC of combinations of drugs (RIF/INH) and inhibitors; assay type: cell-based, M. tuberculosis H37Rv; details: for bactericidal effect in combination with RIF against M. tuberculosis: compared with RIF alone
# [7] = test system: M. tuberculosis; test: MBC by CFU assay; assay type: cell-based, M. tuberculosis H37Rv; details: for MBC, M. tuberculosis / MBC: CFU assay, 96 h, median (range) of three independent experiments; for MBC/MIC, M. tuberculosis: ratio, bactericidal when ≤ 4; for MBC: Mycobacterium tuberculosis
# [8] = test system: M. marinum; test: Resazurin drugs combination microtiter assay (RIF/INH + inhibitor); assay type: cell-based, M. marinum strain M; details: for FICI in combination with INH, M. marinum: synergistic inhibitory effect
# [9] = test system: M. tuberculosis; test: as above; assay type: cell-based, M. tuberculosis H37Rv; details: for FICI in combination with INH, M. tuberculosis: synergistic inhibitory effect
# [10] = at both 1X and 5X MIC concentrations
Molecule,Ki ([1]; read-out: Ki),type of inhibition (Dixon's plot) [1],"MBC, M. marinum [3]","MBC/MIC, M. marinum [3]","MIC, M. tuberculosis [4]","MIC, M. marinum [5]","MBC, M. tuberculosis [7]","MBC/MIC, M. tuberculosis [7]","cytotoxicity in HeLa cells [2, 10]",MBC [3] [µM],MIC [4] [µM],MIC [5] [µM],MBC [7] [µM],Ki ([1]; Ki),"FICI in combination with INH, M. tuberculosis [9]",also measured
"2,2'-[3-(3-methoxyphenyl)-1,2-propanediyl]bis-1H-benzimidazole [compound 9125618]",24 µM and 25 µM,noncompetitive inhibition,37.61 (37.61) μM,2,32.68–38.77 μM and 37.61 (18.80–37.61) μM,9.57–19.39 μM and 18.80 (9.40–18.80) μM,37.61 (37.61) μM,1,–,–,–,–,–,–,–,cytotoxicity in HeLa cells ([2]; 5X MIC concentration): ~ 18%; bactericidal effect in combination with RIF against M. tuberculosis [6]: enhanced bactericidal effect
2-{[(2-methyl-6-phenyl-4-pyrimidinyl)thio]methyl}-1H-benzimidazole [compound 6513745],18 µM,noncompetitive inhibition,38.77 (19.39–38.77) μM,2,32.68–38.77 μM and 38.77 (19.39–38.77) μM,–,38.77 (19.39–38.77) μM,1,not cytotoxic,–,–,–,–,–,–,"combined effect with INH against M. marinum ([8]; in combination with INH): synergistic inhibitory effect; FICI in combination with INH, M. marinum [8]: 0.276"
"NNC(=O)c1ccncc1 [INH, Isoniazid, reference compound]",–,–,–,1,–,–,–,1,–,4.53,2.27,4.53,2.27,–,–,–
"CO[C@H]1/C=C/O[C@@]2(C)Oc3c(C)c(O)c4c(O)c(c(/C=N/N5CCN(C)CC5)c(O)c4c3C2=O)NC(=O)/C(C)=C\C=C\[C@H](C)[C@H](O)[C@@H](C)[C@@H](O)[C@@H](C)[C@H](OC(C)=O)[C@@H]1C [RIF, Rifampicin, reference compound]",–,–,–,2,–,–,–,2,–,0.95,0.048,0.475,0.095,–,–,–
"CC(C)COc1ccc(-c2nn(-c3ccccc3)cc2CO)cc1 [compound 5175552, [3-(4-isobutoxyphenyl)-1-phenyl-1H-pyrazol-4-yl]methanol]",–,competitive inhibition,6.76 (6.76) μM,2,13.51 (13.51–27.02) μM,3.38 (3.38) μM,27.02 (13.51–27.02) μM,2,not cytotoxic,6.76,13.5,3.38,27,68 µM,0.257–0.263,"MBC/MIC ratio in combination with RIF, M. tuberculosis [6]: 1; bactericidal effect in combination with RIF against M. tuberculosis [6]: enhanced bactericidal effect; combined effect with INH against M. tuberculosis ([9]; in combination with INH): synergistic inhibitory effect"
"c1ccc(CC(Cc2nc3ccccc3[nH]2)c2nc3ccccc3[nH]2)cc1 (centres unmarked) [compound 5255825, 2,2'-(3-phenyl-1,2-propanediyl)bis-1H-benzimidazole]",–,competitive inhibition,–,2,35.47 (17.74–35.47) μM,17.74 (8.87–17.74) μM,–,1,cytotoxic,35.5,32.7 to 38.8,9.57 to 19.4,35.5,4 µM,0.257–0.263,"FICI in combination with INH, M. marinum [8]: 0.276"
"CCC(C)c1ccc(OCCSc2nc3ccccc3[nH]2)cc1 (centres unmarked) [compound 6492687, 2-{[2-(4-sec-butylphenoxy)ethyl]thio}-1H-benzimidazole]",–,competitive inhibition,–,4,38.28 (19.14–38.28) μM,9.57 (9.57) μM,–,1,cytotoxic,38.3,32.7 to 38.8,9.57 to 19.4,38.3,25 µM and 24 µM,0.257–0.263,–
"N~1~,N~1~-diethyl-N~4~-{6-methoxy-2-[2-(4-nitrophenyl)vinyl]-4-quinolinyl}-1,4-pentanediamine [compound 5255829]",9 µM,competitive inhibition,32.68 (32.68) μM,2,32.68–38.77 μM and 32.68 (32.68) μM,9.57–19.39 μM and 16.30 (8.15–16.30) μM,32.68 (32.68) μM,1,not cytotoxic,–,–,–,–,–,–,–
